The test has as its system Radical scavenging activity. In words: Antioxidant activity assessed as DPPH free radical scavenging activity at 20 uM after 30 min by UV-vis spectrophotometric analysis relative to propyl gallate. It is filed as functional. (DPPH is a stable violet radical that fades when it is reduced.)
For the compound `O=c1c(O[C@@H]2O[C@H](CO)[C@@H](O)[C@H](O)[C@H]2O)c(-c2ccc(O)c(O)c2)oc2cc(O)cc(O)c12`, the Activity came out at 71.8%.

Regarding `COc1ccc(-c2oc3cc(O)cc(O)c3c(=O)c2O[C@@H]2O[C@H](CO)[C@@H](O)[C@H](O)[C@H]2O)cc1OC`, the Activity amounted to 49.1%.

Consider `NCCCCCCCCCCCC(=O)O`, for which the Activity stood at 87.1%.

(Values after ChEMBL document CHEMBL3046854, “Lupeol-3-O-decanoate, a new triterpene ester from Cadaba farinosa Forssk. growing in Saudi Arabia” (Med Chem Res, 2013).)
